What was measured:
[1] = test system: human skin model, primary human adult diabetic keratinocytes; assay: Irritation test (MTT viability) on skin model with adult diabetic donor keratinocytes; format: cell-based; conditions: 2 mg/mL SDS in PBS, 50 μL on top of 14-day diabetic sample, 18 hours at 37° C., MTT 3 hours, absorbance 490 nm
Procedure: (§1) One potential use-case for these skin models is as an irritation model for pharmaceuticals, cosmetics, or occupational health studies. To evaluate the use of these stamped models in irritation tests, a common test method^21 was adapted. Sodium dodecyl sulfate (SDS) was applied to the top of these samples after 14 days of culture and incubated at 37° C. for 18 hours. After, an MTT assay was used to measure the cell viability. […] If the SDS penetrates through the epidermal barrier, the sample will not be viable and give a low signal in the MTT assay. […] Moreover, the standard for this test method is that the normalized viability reaches 50% between 1-3 mg/mL of SDS added to the samples^21. The samples here met this standard, as the 3 mg/mL neonatal samples have absorbance values greater than 50% of the negative control, and the diabetic sample with 2 mg/mL SDS has absorbance value greater than 50% of the negative control.
(§2) Irritation Test. After keratinocytes had grown for 14 days, 50 μL of SDS at a concentration between 1-3 mg/mL in PBS was applied to the top of each skin sample. 1×PBS was applied as a negative control. […] After the substrate was completely dissolved, 50 μL of isopropanol formazan solution was transferred from each well to a 48 well plate, which was measured on a plate reader using the absorbance setting at 490 nm.

[2] = test system: human skin models, primary human neonatal keratinocytes; assay: Irritation test (MTT viability) on skin models with neonatal keratinocytes; format: cell-based; conditions: 3 mg/mL SDS in PBS, 50 μL on top of 14-day neonatal samples, 18 hours at 37° C., MTT 3 hours, absorbance 490 nm
Procedure: as §1, §2

## CCCCCCCCCCCCOS(=O)(=O)[O-].[Na+] [SDS, Sodium dodecyl sulfate]
[1]
  absorbance value (MTT viability) relative to negative control: greater than 50 % of the negative control
[2]
  absorbance value (MTT viability) relative to negative control: greater than 50 % of the negative control

From US20240327790A1, “METHODS AND COMPOSITIONS RELATING TO 3-D CULTURES” (PRESIDENT AND FELLOWS OF HARVARD COLLEGE, priority 2021, published 2024)
